Consider 16 compounds from patent US7022733B2, “Substituted 2-phenyl benzofurans as estrogenic agents” (Wyeth, priority 2001, dated 2006).

The structures appear in SMILES notation.

One data set has as its system metallothionein-II mRNA in Saos-2 cells. As to the kind of experiment: Regulation of metallothionein-II mRNA in Saos-2 cells. The class given is cell-based. As to conditions: Homo sapiens.
The compound `Oc1ccc(-c2cc3cc(O)ccc3o2)c(-c2ccccc2)c1` [Example 103, 2-(5-Hydroxy-biphenyl-2-yl)-benzofuran-5-ol] had a fold induction at 1 µM of 9.

Tested on in the next data set: not given
Experiment: not given
Details: not given
Take `Oc1ccc(-c2cc(O)ccc2-c2cc3cc(O)ccc3o2)cc1` [Example 105, 6-(5-Hydroxy-benzofuran-2-yl)-biphenyl-3,4′-diol]: the melting point was in the range of 238 to 239 °C.

`CC(=O)c1c(-c2ccc(O)cc2)oc2ccc(O)cc12` [Example 110, 1-[5-Hydroxy-2-(4-hydroxy-phenyl)-benzofuran-3-yl]-ethanone] came in with a melting point of 243 to 251 °C.

`CC(=NO)c1c(-c2ccc(O)cc2)oc2ccc(O)cc12` [Example 111, 1-[5-Hydroxy-2-(4-hydroxy-phenyl)-benzofuran-3-yl]-ethanone oxime] yielded a melting point of 217 °C.

`CC(O)c1c(-c2ccc(O)cc2)oc2ccc(O)cc12` (stereo not shown) [Example 113, 3-(1-Hydroxy-ethyl)-2-(4-hydroxy-phenyl)-benzofuran-5-ol] showed a melting point of 177 to 182 °C.

In the case of `CC(C)c1cc(O)cc2cc(-c3ccc(O)cc3)oc12` [Example 118, 2-(4-Hydroxy-phenyl)-7-isopropyl-benzofuran-5-ol], the melting point was in the range of 192 to 194 °C.

Regarding `CON(C)C(=O)c1cc(O)cc2cc(-c3ccc(O)cc3)oc12` [Example 119, 5-Hydroxy-2-(4-hydroxy-phenyl)-benzofuran-7-carboxylic acid methoxy-methyl-amide], the melting point is 125 to 127 °C.

Turning to `Oc1ccc2oc(-c3ccc(O)c(F)c3)cc2c1` [Example 126, 2-(3-Fluoro-4-hydroxy-phenyl)-benzofuran-5-ol], the melting point lay within 218 to 222 °C.

In turn, `Oc1ccc(-c2cc3c(Br)c(O)ccc3o2)cc1` [Example 130, 4-Bromo-2-(4-hydroxy-phenyl)-benzofuran-5-ol] returned a melting point of 196 to 198 °C.

Consider `Oc1ccc(-c2cc3c(Cl)c(O)ccc3o2)cc1` [Example 131, 4-Chloro-2-(4-hydroxy-phenyl)-benzofuran-5-ol], for which the melting point was 210 to 214 °C.

Compound `COc1c(O)ccc2oc(-c3ccc(O)cc3)cc12` [Example 132, 2-(4-Hydroxy-phenyl)-4-methoxy-benzofuran-5-ol] gave a melting point of 165 to 171.68 °C.

`N#Cc1c(O)ccc2oc(-c3ccc(O)cc3)cc12` [Example 135, 5-Hydroxy-2-(4-hydroxy-phenyl)-benzofuran-4-carbonitrile] registered a melting point greater than 230 °C.

Take `Oc1ccc(-c2cc3cc(O)cc(-c4nnco4)c3o2)cc1` [Example 138, 2-(4-Hydroxy-phenyl)7-[1,3,4]oxadiazol-2-yl-benzofuran-5-ol]: the melting point is 260 to 266 °C.

Compound `Oc1ccc(-c2cc3cc(O)cc(CC(F)(F)F)c3o2)cc1` [Example 141, 2-(4-Hydroxy-phenyl)-7-(2,2,2-trifluoro-ethyl)-benzofuran-5-ol] had a melting point of 210 to 213 °C.

Turning to `O=C(O)c1ccc2oc(-c3ccc(O)cc3)cc2c1` [Example 143, 2-(4-Hydroxy-phenyl)-benzofuran-5-carboxylic acid], the melting point is greater than 300 °C.

Consider `OCc1ccc2oc(-c3ccc(O)cc3)cc2c1` [Example 144, 4-(5-Hydroxymethyl-benzofuran-2-yl)-phenol], for which the melting point lay within 248 to 250 °C.

What is called fold induction is the ratio of treated to control signal. Low values mean a weak induction, high ones a strong induction. A word on the melting point: it is the temperature of the solid-liquid transition.
